# Test results reported in US20200121801A1, “DRUG DELIVERY CONJUGATES CONTAINING UNNATURAL AMINO ACIDS AND METHODS FOR USING” (priority 2012, published 2020).
# Experiments:
# [1] = target: T1, folate receptors (FRs) on KB cells (Homo sapiens, UniProt P15328); assay: Relative affinity assay (3H-folic acid competition) on KB cells; format: binding; conditions: KB cells, 1 h at 37° C.
# T1 construct: FR-positive KB cells are heavily seeded into 24-well cell culture plates; endogenous in cells; host or cells: KB cells
# T1 sequence (P15328 25-234): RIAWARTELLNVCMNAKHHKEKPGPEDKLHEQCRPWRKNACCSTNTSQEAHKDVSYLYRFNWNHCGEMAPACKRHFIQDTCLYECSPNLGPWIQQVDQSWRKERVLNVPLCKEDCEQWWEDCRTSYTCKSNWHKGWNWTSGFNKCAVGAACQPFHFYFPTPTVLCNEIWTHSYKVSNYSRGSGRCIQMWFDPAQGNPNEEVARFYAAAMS
# Method: METHOD. Relative Affinity Assay. The affinity for folate receptors (FRs) relative to folate is determined according to a previously described method (Westerhof, G. R., J. H. Schornagel, et al. (1995) Mol. Pharm. 48: 459-471) with slight modification. Briefly, FR-positive KB cells are heavily seeded into 24-well cell culture plates and allowed to adhere to the plastic for 18 h. Spent incubation media is replaced in designated wells with folate-free RPMI (FFRPMI) supplemented with 100 nM ^3H-folic acid in the absence and presence of increasing concentrations of test article or folic acid. Cells are incubated for 60 min at 37° C. and then rinsed 3 times with PBS, pH 7.4. Five hundred microliters of 1% SDS in PBS, pH 7.4, is added per well. Cell lysates are then collected and added to individual vials containing 5 mL of scintillation cocktail, and then counted for radioactivity. Negative control tubes contain only the ^3H-folic acid in FFRPMI (no competitor). Positive control tubes contain a final concentration of 1 mM folic acid, and CPMs measured in these samples (representing non-specific binding of label) are subtracted from all samples.
# RAW264.7 macrophages = assay: XTT cell viability assay on RAW264.7 macrophages; format: cell-based, murine
# Method: METHOD. Inhibition of Cellular DNA Synthesis. The compounds described herein are evaluated using an in vitro cytotoxicity assay that predicts the ability of the drug to inhibit the growth of folate receptor-positive cells, such as KB cells, RAW264.7 macrophages, and the like. It is to be understood that the choice of cell type can made on the basis of the susceptibility of those selected cells to the drug that forms the conjugate. The test compounds are comprised of folate linked to a respective chemotherapeutic drug, as prepared according to the processes described herein. The test cells are exposed to varying concentrations of folate-drug conjugate, and also in the absence or presence of at least a 100-fold excess of folic acid to assess activity as being specific to folate receptor mediation.
# EXAMPLE. […] The anti-proliferative activity of EC1669 is measured in a XTT cell viability assay (FIG. 2) on RAW264.7 cells after a 2-h exposure and a total of 72 h incubation.
# RAW264.7 macrophages are susceptible to the drug forming the EC1669 conjugate, aminopterin. The cell viability is assessed by adding XTT (2,3-bis(2-methoxy-4-nitro-5-sulfo-phenyl)-2H-tetrazolium-5-carboxanilide) following the manufacturer's instructions. […] The observed anti-proliferative effect was 100% competable in the presence of 100-fold excess folic acid (FA), indicating a FR-specific mode of action for EC1669.
smiles,measurement,setting,value
N=c1[nH]c(N)nc2ncc(CNc3ccc(C(=O)N[C@@H](CCC(=O)NNC(=O)OCCSSC[C@@H](NC(=O)[C@H](CCC(=O)NC[C@H](O)[C@@H](O)[C@H](O)[C@H](O)CO)NC(=O)[C@@H](CCC(=O)O)NC(=O)[C@H](CCC(=O)NC[C@H](O)[C@@H](O)[C@H](O)[C@H](O)CO)NC(=O)[C@@H](CCC(=O)O)NC(=O)[C@H](CCC(=O)NC[C@H](O)[C@@H](O)[C@H](O)[C@H](O)CO)NC(=O)CC[C@H](NC(=O)c4ccc(NCc5cnc6nc(N)[nH]c(=O)c6n5)cc4)C(=O)O)C(=O)O)C(=O)O)cc3)nc12 [EC1669],"relative affinity (normalized against folic acid, set to 1)",[1],0.53
same,IC50,"RAW264.7 macrophages; 2-h exposure, total of 72 h incubation, read-out: relative IC50, inhibition of cell proliferation",~1.2 nM
same,anti-proliferative effect competable by folic acid,RAW264.7 macrophages; 100-fold excess folic acid,100%
